A short description of this data set: gradient 5% acetonitrile 3 min, to 50% in 2 min, to 85% in 15 min, held 3 min, 100 µL/min. Conditions: column: Zorbax Extend-C18 2.1 x 50 mm; eluents: water / acetonitrile, 0.1% formic acid. Summed up:
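Data were gathered over 3 months by HPLC coupled to a quadrupole time-of-flight mass spectrometer, operated in positive and negative ionization mode. Mixtures of ~100 pure standards ran on a Zorbax Extend-C18 column (2.1 × 50 mm, 1.8 μm) at 100 μL/min, with water and acetonitrile each containing 0.1% formic acid and dead and dwell volumes of 40 μL and 900 μL. Retention time was read from adduct peaks picked by computer and checked manually.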
Consider `CCCC(CCC)C(=O)N1CCCN(C2=NS(=O)(=O)C(c3ccc(F)cc3)=C2C)CC1`, for which the RP-LC retention time is 972 s.

`Cc1nc(-c2ccc(C(=O)NC(C)C)cc2)cs1`: the RP-LC retention time worked out at 731 s.

`Cn1c(=O)c(C(=O)N2CCN(c3ccccn3)CC2)nn(-c2ccc(F)cc2)c1=O` showed an RP-LC retention time of 622 s.

Take `CCc1nc2cc(-c3noc(-c4ccc(OC)nc4)n3)ccc2o1`: the RP-LC retention time amounted to 1180 s.

Take `COCCN(C)Cc1ccc(CC2CCN(C(=O)C3(c4ccc(OC)cc4)CC3)CC2)cc1`: the RP-LC retention time turned out to be 691 s.

Regarding `O=C(NC1CC1)C1CCCN(S(=O)(=O)c2cc(-c3noc(C4CCCC4)n3)cs2)C1` (configuration not stated), the RP-LC retention time was 972 s.

Compound `CCc1cc(C(=O)N2CCCC2c2cccc(F)c2)no1` (configuration not stated) showed an RP-LC retention time of 944 s.

In turn, `O=C(NCCc1cccs1)c1nnc(-c2ccc(S(=O)(=O)N3CCCC3)cc2)o1` displayed an RP-LC retention time of 889 s.

As for `Cc1nc(-c2ccccn2)cc2nn(CC(=O)NCCC(C)C)c(=O)n12`, the RP-LC retention time worked out at 713 s.

Regarding `COc1ccc(N2CCN(c3nc4ccccc4cc3-c3noc(C)n3)CC2)cc1`, the RP-LC retention time was 681 s.

Compound `CC1=C(c2ccc(F)cc2)S(=O)(=O)N=C1N1CCC(NC(=O)NC(C)C)CC1` displayed an RP-LC retention time of 861 s.

The compound `CCNC(=O)N1CC(c2nc(-c3ccccc3)no2)C2(CCOCC2)C1` (configuration not stated) yielded an RP-LC retention time of 728 s.

For `COc1cccc(CNC(=O)C2(C)CCCN(C(=O)Nc3cc(C)ccc3C)C2)c1` (configuration not stated), the RP-LC retention time is 939 s.

`Cc1nnc(NC(=O)c2csc(Nc3ccc(OC(F)F)cc3)n2)s1`: the RP-LC retention time was determined as 781 s.

Compound `Cc1ccc(CNC(=O)N(C)CCc2noc(COc3cccc(C)c3)n2)cc1` displayed an RP-LC retention time of 956 s.

Turning to `Cc1cccc(NS(=O)(=O)c2cn(C(C)C)c3ncccc23)c1C`, the RP-LC retention time came out at 946 s.

In turn, `Cc1ccc(OCc2nc(-c3cccc(-c4ccnn4C)c3)no2)cc1` gave an RP-LC retention time of 1130 s.

In the case of `CC(NC(=O)C1CCN(c2cnn(Cc3ccccc3)c(=O)c2)CC1)c1cccs1` (configuration not stated), the RP-LC retention time worked out at 789 s.

Turning to `CCc1cc(=O)n(Cc2ccccc2C#N)c(N2CCCC2)n1`, the RP-LC retention time is 696 s.

`COc1cc([C@@H]2c3cc4c(cc3[C@H](O)[C@@H](CO)[C@@H]2C(=O)Nc2cccc(F)c2)OCO4)cc(OC)c1OC` had an RP-LC retention time of 761 s.

For `CC(C)(O)CC[C@@H](O)[C@](C)(O)[C@H]1CC[C@@]2(O)C3=CC(=O)[C@@H]4C[C@@H](O)[C@@H](O)C[C@]4(C)[C@H]3CC[C@]12C`, the RP-LC retention time was 629 s.

Compound `CCCNc1nc(-c2ccccc2Cl)nc2ccccc12` gave an RP-LC retention time of 702 s.

With `O=C(NC1CC1)[C@@H]1C[C@H](Oc2ccccc2)CN1C(=O)C1CCC1`, the RP-LC retention time came to 735 s.

`CCn1nc(CNC(=O)Cc2cccc(F)c2)c2ccccc21` yielded an RP-LC retention time of 764 s.

On to `CCC(=O)N1CCCCCCNC(=O)[C@@H]2CCC[C@@H]21`, for which the RP-LC retention time was 657 s.

Compound `COc1cccc(CNC(=O)C2(C)CCN(C(=O)Nc3ccc(Br)c(C)c3)CC2)c1` displayed an RP-LC retention time of 934 s.

On to `Cc1cccc2nnc(N3CCC(C(=O)NCc4ccc(C(F)(F)F)cc4)CC3)n12`, for which the RP-LC retention time was determined as 740 s.

`CCc1nnc(-c2ccc(S(=O)(=O)N3CCCC(C)C3)o2)o1` (configuration not stated) returned an RP-LC retention time of 906 s.

Turning to `O=C(NCCC1=CCCCC1)c1nc(Nc2ccc(F)cc2)c2ccccc2n1`, the RP-LC retention time was 962 s.

The compound `CCCN1C(=O)Cc2cc(C(=O)N3CCN(c4ccc(OC)cc4)CC3)ccc21` returned an RP-LC retention time of 748 s.

Compound `O=C1CC(C(=O)N2CCN(Cc3ccccc3)CC2)CN1CCc1c[nH]c2ccc(F)cc12` (configuration not stated) showed an RP-LC retention time of 634 s.

For the compound `CC(=O)Nc1ccc(OCc2cc(C(=O)NC3CCC(C)CC3)no2)cc1` (configuration not stated), the RP-LC retention time was determined as 860 s.

The values above are taken from the METLIN SMRT retention time set (Domingo-Almenara et al. 2019).
